Data reported in patent EP4678638A1, “NEW E3 UBIQUITIN LIGASE LIGAND, PROTEIN DEGRADATION AGENT AND USE THEREOF” (priority 2023, dated 2024).
Like-named read-outs stand apart in the source and are kept apart here.

What was measured:
MV-4-11 = assay: CCK-8 proliferation, MV-4-11; assay type: cell-based, Human; conditions: CCK-8, 72 or 96 hours, read-out: Inhibitory activity (IC50) on tumor cell proliferation, MV-4-11
In short: (§1)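 Cells seeded, then after 24 h treated with 10 concentrations (top 10 µM, 5-fold serial dilution) for a line-specific time at 37°C, 5% CO2. Viability read by CCK-8; IC50 fitted from growth-inhibition curves.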

Kasumi-1 = assay: CCK-8 proliferation, Kasumi-1; assay type: cell-based, Human; conditions: read-out: Inhibitory activity (IC50) on tumor cell proliferation, Kasumi-1
Protocol: The tumor cells used herein were cultured in a cell culture medium listed in table A1 at 37°C in an incubator with 5% CO2. Prior to experimentation, all cell lines used were correctly identified by STR profiling, and tested negative for mycoplasma contamination using a mycoplasma detection kit through routine screenings. Table A1. Tumor cells and cell culture medium used in the present disclosure
IC50 values of the compounds of the present disclosure (including the compounds in Table 1, and compounds of examples) were measured using the Meilun Cell Counting Kit-8 kit from Dalian Meilun Biotech Co., Ltd. Assay details are as follows: tumor cells were seeded in a 96-well plate at a density listed in Table A2. After 24h, 100 µL of the inoculated cells were treated with 0.5µL of the compounds of the present disclosure (including the compounds in Tables 1 and 2, and compounds of examples) at 10 different successively decreasing concentrations (starting at the highest concentration of 10µM; 5-fold serial dilutions). After the cells were treated with the compounds of the present disclosure for a period of time, the cell viability detection reagent was added to the culture medium for cell viability assessment according to the instructions provided with the CCK-8 kit. […] The growth inhibition of the compounds of the present disclosure on cells was plotted by Prism Graphpad software, and the IC50 values of the compounds of the present disclosure were calculated therefrom. […] Seeding protocol and treatment time for tumor cells

CCRF-CEM = assay: CCK-8 proliferation, CCRF-CEM; assay type: cell-based, Human; conditions: CCK-8, 96 hours, read-out: Inhibitory activity (IC50) on tumor cell proliferation, CCRF-CEM
In short: as §1

IKZF2 = target: T1, IKZF2 (Homo sapiens, UniProt Q96SW2+Q9UKS7); assay: Western blot degradation of IKZF2 (hPBMC); assay type: cell-based; conditions: Table D16
T1 construct: evaluate the effects of the compounds of the present disclosure on the expression of target proteins in cells; endogenous in cells; host or cells: hPBMC
T1 sequence (Q9UKS7 whole entry): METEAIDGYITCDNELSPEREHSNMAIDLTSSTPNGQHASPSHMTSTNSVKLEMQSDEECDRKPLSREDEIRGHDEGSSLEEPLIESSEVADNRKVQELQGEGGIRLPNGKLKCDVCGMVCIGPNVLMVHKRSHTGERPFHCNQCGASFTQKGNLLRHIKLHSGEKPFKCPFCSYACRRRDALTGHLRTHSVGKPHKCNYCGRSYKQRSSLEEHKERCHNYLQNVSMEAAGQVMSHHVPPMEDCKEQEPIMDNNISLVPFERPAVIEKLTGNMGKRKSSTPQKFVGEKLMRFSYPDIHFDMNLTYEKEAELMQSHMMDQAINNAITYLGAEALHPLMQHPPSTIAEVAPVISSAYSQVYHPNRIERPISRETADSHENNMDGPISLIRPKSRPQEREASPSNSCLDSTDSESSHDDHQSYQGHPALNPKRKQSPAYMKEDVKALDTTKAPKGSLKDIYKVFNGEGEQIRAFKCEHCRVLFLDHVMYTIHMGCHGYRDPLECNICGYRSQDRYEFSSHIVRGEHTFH
T1 sequence (Q96SW2 whole entry): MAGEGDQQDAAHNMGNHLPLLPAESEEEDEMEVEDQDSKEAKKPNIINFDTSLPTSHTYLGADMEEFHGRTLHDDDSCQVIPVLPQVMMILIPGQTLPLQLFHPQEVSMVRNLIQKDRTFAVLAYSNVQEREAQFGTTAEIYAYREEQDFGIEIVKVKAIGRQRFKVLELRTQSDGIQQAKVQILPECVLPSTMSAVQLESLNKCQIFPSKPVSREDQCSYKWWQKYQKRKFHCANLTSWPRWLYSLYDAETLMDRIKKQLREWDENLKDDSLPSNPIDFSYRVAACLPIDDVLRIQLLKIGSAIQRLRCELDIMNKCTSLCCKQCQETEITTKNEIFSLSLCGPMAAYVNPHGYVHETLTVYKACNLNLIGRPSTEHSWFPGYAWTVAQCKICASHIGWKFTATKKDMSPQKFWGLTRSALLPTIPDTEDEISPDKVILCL
T1 sequence (Q16531 whole entry partner): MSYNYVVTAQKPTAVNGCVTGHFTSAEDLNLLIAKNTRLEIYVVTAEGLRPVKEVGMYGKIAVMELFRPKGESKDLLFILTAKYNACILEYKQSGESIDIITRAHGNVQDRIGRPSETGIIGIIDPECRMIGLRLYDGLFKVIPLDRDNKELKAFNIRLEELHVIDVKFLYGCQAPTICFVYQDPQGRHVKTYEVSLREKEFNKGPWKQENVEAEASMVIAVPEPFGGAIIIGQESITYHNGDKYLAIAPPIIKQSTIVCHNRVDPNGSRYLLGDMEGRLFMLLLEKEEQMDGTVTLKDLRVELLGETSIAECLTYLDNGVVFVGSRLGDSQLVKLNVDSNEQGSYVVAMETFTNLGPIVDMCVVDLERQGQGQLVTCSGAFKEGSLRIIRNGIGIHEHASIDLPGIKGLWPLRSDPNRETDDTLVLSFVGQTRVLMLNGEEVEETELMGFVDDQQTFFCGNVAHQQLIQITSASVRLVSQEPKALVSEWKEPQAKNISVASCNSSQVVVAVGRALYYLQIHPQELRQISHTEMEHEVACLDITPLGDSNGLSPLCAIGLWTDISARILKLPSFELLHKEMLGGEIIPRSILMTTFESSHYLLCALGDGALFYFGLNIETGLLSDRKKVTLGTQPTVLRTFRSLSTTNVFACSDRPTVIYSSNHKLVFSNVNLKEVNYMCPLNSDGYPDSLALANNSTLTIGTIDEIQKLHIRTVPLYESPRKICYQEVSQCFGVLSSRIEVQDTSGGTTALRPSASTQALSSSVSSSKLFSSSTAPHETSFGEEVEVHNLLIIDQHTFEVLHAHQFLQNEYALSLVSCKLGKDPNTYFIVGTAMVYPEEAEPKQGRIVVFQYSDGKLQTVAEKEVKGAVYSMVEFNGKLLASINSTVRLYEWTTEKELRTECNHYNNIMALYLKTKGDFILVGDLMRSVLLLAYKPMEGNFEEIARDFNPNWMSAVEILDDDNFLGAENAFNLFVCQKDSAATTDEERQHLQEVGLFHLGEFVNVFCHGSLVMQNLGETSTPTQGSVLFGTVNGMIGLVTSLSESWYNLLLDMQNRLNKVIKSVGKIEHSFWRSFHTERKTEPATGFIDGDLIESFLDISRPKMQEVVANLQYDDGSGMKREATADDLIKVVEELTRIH
In short: (§2)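 Quantification by ImageJ densitometry of Western blot bands: DC50 is the fitted concentration halving band intensity relative to DMSO. Percent remaining uses internal-control normalization, and degradation rate is its complement.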

CK1a = target: T2, CK1a (Homo sapiens, UniProt P48729+Q96SW2); assay: Western blot degradation of CK1a (hPBMC); assay type: cell-based; conditions: Table D16
T2 construct: evaluate the effects of the compounds of the present disclosure on the expression of target proteins in cells; endogenous in cells; host or cells: hPBMC
T2 sequence (P48729 whole entry): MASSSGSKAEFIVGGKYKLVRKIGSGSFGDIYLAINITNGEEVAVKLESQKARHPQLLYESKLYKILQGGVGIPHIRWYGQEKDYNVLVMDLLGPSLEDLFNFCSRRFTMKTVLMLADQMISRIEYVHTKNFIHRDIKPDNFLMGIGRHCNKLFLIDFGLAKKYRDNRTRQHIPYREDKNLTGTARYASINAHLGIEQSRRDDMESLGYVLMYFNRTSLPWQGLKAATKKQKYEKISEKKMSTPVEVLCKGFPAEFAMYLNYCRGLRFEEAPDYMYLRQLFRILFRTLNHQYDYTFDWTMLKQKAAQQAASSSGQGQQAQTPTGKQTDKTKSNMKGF
T2 sequence (Q96SW2 whole entry): as the sequence (Q96SW2 whole entry) above
T2 sequence (Q16531 whole entry partner): as the sequence (Q16531 whole entry partner) above
In short: as §2

IKZF3 = target: T3, IKZF3 (Homo sapiens, UniProt Q96SW2+Q9UKT9); assay: Western blot degradation of IKZF3 (hPBMC); assay type: cell-based; conditions: Table D16
T3 construct: evaluate the effects of the compounds of the present disclosure on the expression of target proteins in cells; endogenous in cells; host or cells: hPBMC
T3 sequence (Q9UKT9 whole entry): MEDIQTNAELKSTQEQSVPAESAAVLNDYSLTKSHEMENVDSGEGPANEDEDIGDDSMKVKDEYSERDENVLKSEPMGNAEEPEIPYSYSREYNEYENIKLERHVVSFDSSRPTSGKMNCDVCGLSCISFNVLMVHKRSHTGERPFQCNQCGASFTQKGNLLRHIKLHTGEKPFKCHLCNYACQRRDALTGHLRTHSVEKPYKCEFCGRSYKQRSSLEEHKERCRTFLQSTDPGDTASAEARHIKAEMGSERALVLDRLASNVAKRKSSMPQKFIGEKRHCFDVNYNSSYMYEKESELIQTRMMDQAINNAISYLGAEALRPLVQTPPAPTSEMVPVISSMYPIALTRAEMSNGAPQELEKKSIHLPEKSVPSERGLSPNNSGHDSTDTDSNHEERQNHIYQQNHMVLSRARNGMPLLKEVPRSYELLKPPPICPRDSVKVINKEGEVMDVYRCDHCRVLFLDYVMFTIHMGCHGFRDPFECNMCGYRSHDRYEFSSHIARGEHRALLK
T3 sequence (Q96SW2 whole entry): as the sequence (Q96SW2 whole entry) above
T3 sequence (Q16531 whole entry partner): as the sequence (Q16531 whole entry partner) above
In short: as §2

GSPT1 = target: T4, GSPT1 (Homo sapiens, UniProt P15170+Q96SW2); assay: Western blot degradation of GSPT1 (hPBMC); assay type: cell-based; conditions: Table D16
T4 construct: evaluate the effects of the compounds of the present disclosure on the expression of target proteins in cells; endogenous in cells; host or cells: hPBMC
In short: as §2

WEE1 = target: T5, WEE1 (Homo sapiens, UniProt P30291+Q96SW2); assay: Western blot degradation of WEE1 (hPBMC); assay type: cell-based; conditions: Table D16
T5 construct: evaluate the effects of the compounds of the present disclosure on the expression of target proteins in cells; endogenous in cells; host or cells: hPBMC
T5 sequence (P30291 whole entry): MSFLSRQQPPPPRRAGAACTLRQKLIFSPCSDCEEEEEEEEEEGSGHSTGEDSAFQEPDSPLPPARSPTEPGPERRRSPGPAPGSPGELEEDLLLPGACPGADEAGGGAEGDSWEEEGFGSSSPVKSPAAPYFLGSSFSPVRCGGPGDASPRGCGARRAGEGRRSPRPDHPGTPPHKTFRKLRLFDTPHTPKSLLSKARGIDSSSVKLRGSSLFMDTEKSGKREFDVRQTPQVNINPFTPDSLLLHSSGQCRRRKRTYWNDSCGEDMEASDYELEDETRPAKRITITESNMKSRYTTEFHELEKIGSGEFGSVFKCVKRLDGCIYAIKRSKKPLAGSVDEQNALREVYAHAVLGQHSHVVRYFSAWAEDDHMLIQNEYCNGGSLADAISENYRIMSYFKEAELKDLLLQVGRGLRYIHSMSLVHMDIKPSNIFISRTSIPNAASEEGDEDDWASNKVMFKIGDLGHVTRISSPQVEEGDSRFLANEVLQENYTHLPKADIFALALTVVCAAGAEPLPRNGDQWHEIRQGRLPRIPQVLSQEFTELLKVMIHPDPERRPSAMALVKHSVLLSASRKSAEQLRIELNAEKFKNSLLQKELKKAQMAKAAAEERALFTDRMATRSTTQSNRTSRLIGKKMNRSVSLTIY
T5 sequence (Q96SW2 whole entry): as the sequence (Q96SW2 whole entry) above
T5 sequence (Q16531 whole entry partner): as the sequence (Q16531 whole entry partner) above
In short: as §2

MCF7 = assay: CCK-8 proliferation, MCF7 (MCF-7); assay type: cell-based; conditions: Homo sapiens, MCF7; CCK-8; read-out: Inhibitory activity (IC50) on tumor cell proliferation, MCF-7
In short: as §1

IKZF1 = target: T6, IKZF1 (Homo sapiens, UniProt Q13422+Q96SW2); assay: Western blot degradation of IKZF1 (hPBMC); assay type: cell-based; conditions: Table D16
T6 construct: evaluate the effects of the compounds of the present disclosure on the expression of target proteins in cells; endogenous in cells; host or cells: hPBMC
T6 sequence (Q13422 whole entry): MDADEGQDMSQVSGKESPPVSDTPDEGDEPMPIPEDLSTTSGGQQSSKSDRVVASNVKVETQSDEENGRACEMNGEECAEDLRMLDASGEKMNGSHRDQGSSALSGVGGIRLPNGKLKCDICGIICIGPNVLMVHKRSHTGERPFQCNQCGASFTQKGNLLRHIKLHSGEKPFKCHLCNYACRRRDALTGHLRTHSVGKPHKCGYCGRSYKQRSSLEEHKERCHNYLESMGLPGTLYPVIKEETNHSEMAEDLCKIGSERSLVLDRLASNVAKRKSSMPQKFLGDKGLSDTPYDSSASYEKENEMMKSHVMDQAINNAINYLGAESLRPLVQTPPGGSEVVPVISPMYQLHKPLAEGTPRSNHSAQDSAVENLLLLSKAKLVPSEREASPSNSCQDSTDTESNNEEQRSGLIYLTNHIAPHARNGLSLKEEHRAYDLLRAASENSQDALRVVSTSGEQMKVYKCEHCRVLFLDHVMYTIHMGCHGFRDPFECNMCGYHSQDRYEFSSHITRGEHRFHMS
T6 sequence (Q96SW2 whole entry): as the sequence (Q96SW2 whole entry) above
T6 sequence (Q16531 whole entry partner): as the sequence (Q16531 whole entry partner) above
In short: as §2

MDA-MB-231 = assay: CCK-8 proliferation, MDA-MB-231; assay type: cell-based; conditions: Homo sapiens, MDA-MB-231; CCK-8; 96 hours; read-out: Inhibitory activity (IC50) on tumor cell proliferation, MDA-MB-231
In short: as §1

[1] = Homo sapiens, Kasumi 1, 72 hours

SMILES	IC50 (MV-4-11; Homo sapiens, MV4-11)	IC50 (Kasumi-1; [1])	Degradation of substrate protein IKZF2 (substrate protein remaining %) (IKZF2)	Degradation of substrate protein CKla (substrate protein remaining %) (CK1a)	Degradation of substrate protein IKZF3 (substrate protein remaining %) (IKZF3)	Degradation of substrate protein GSPT1 (substrate protein remaining %) (GSPT1)	Degradation of substrate protein WEE1 (substrate protein remaining %) (WEE1)	Degradation of substrate protein IKZF1 (substrate protein remaining %) (IKZF1)	IC50 (MDA-MB-231)	other results
Cc1ccsc1C(=O)n1nc(Nc2ccc(S(=O)(=O)N3CCN(Cc4cccc(NC5CCC(=O)NC5=O)c4)CC3)cc2)nc1N (stereo not shown) [GT-06862, 3-((3-((4-((4-((5-amino-1-(3-methylthiophene-2-carbonyl)-1H-1,2,4-triazol-3-yl)amino)phenyl)sulfonyl)piperazin-1-yl)methyl)phenyl)amino)piperidine-2,6-dione]	100 to 500 nM	100 to 500 nM								
Cc1cc(S(=O)(=O)N2CCN(Cc3ccc(N4CCC(=O)NC4=O)nc3)CC2)ccc1Nc1ncc(Br)c(Nc2cccc(F)c2C(N)=O)n1 [GT-06834, 2-((5-bromo-2-((4-((4-((6-(2,4-dioxotetrahydropyrimidin-1(2H)-yl)pyridin-3-yl)methyl)piperazin-1-yl)sulfonyl)-2-methylphenyl)amino)pyrimidin-4-yl)amino)-6-fluorobenzamide]	100 to 500 nM	500 to 1000 nM								IC50 (CCRF-CEM; Homo sapiens, CCRF-CEM): 500 to 1000 nM
O=C1CCN(c2cc(CCl)c(F)cn2)C(=O)N1 [GT-07199, 1-(4-(Chloromethyl)-5-fluoropyridin-2-yl)dihydropyrimidine-2,4(1H,3H)-dione]			A (A is defined as 0% ≤ substrate protein remaining % ≤ 80%)	A (A is defined as 0% ≤ substrate protein remaining % ≤ 80%)	A (A is defined as 0% ≤ substrate protein remaining % ≤ 80%)	A (A is defined as 0% ≤ substrate protein remaining % ≤ 80%)	B (B is defined as substrate protein remaining % > 80%)	B (B is defined as substrate protein remaining % > 80%)	1000 to 5000 nM	IC50 (MCF7): 1000 to 5000 nM
CN1CCN(Cc2ccc(NC(=O)c3[nH]ncc3Nc3ncnc4[nH]ccc34)cc2)CC1 [FN-1501, reference compound]										IC50 (MV-4-11): 1 to 10 nM; IC50 (Kasumi-1; 72 hours): 100 to 500 nM; IC50 (CCRF-CEM): 100 to 500 nM
O=C1CCN(c2cnc(F)c(CCl)c2)C(=O)N1 [GT-07633, 1-(5-(Chloromethyl)-6-fluoropyridin-3-yl)dihydropyrimidine-2,4(1H,3H)-dione]			A (A is defined as 0% ≤ substrate protein remaining % ≤ 80%)	A (A is defined as 0% ≤ substrate protein remaining % ≤ 80%)	B (B is defined as substrate protein remaining % > 80%)	B (B is defined as substrate protein remaining % > 80%)	A (A is defined as 0% ≤ substrate protein remaining % ≤ 80%)	B (B is defined as substrate protein remaining % > 80%)	1000 to 5000 nM	IC50 (MCF7): 1000 to 5000 nM
O=C1CCN(c2cc(CCl)ccn2)C(=O)N1 [GT-07078, 1-(4-(Chloromethyl)pyridin-2-yl)dihydropyrimidine-2,4(1H,3H)-dione]			B (B is defined as substrate protein remaining % > 80%)	B (B is defined as substrate protein remaining % > 80%)	B (B is defined as substrate protein remaining % > 80%)	A (A is defined as 0% ≤ substrate protein remaining % ≤ 80%)	B (B is defined as substrate protein remaining % > 80%)	B (B is defined as substrate protein remaining % > 80%)	1000 to 5000 nM	IC50 (MCF7): 1000 to 5000 nM
Cc1cc(S(=O)(=O)N2CCN(Cc3ccc(N4CCC(=O)NC4=O)cc3)CC2)ccc1Nc1ncc(Br)c(Nc2cccc(F)c2C(N)=O)n1 [GT-06831, 2-((5-bromo-2-((4-((4-(4-(2,4-dioxotetrahydropyrimidin-1(2H)-yl)benzyl)piperazin-1-yl)sulfonyl)-2-methylphenyl)amino)pyrimidin-4-yl)amino)-6-fluorobenzamide]	100 to 500 nM	500 to 1000 nM								
Cc1ccsc1C(=O)n1nc(Nc2ccc(S(=O)(=O)N3CCN(Cc4ccc(N5CCC(=O)NC5=O)nc4)CC3)cc2)nc1N [GT-06861, 1-(5-((4-((4-((5-amino-1-(3-methylthiophene-2-carbonyl)-1H-1,2,4-triazol-3-yl)amino)phenyl)sulfonyl)piperazin-1-yl)methyl)pyridin-2-yl)dihydropyrimidine-2,4(1H,3H)-dione]	100 to 500 nM	500 to 1000 nM								IC50 (CCRF-CEM; Homo sapiens, CCRF-CEM): 500 to 1000 nM
Cc1cc(S(=O)(=O)N2CCN(Cc3cccc(N4CCC(=O)NC4=O)c3)CC2)ccc1Nc1ncc(Br)c(Nc2cccc(F)c2C(N)=O)n1 [GT-06832, 2-((5-bromo-2-((4-((4-(3-(2,4-dioxotetrahydropyrimidin-1(2H)-yl)benzyl)piperazin-1-yl)sulfonyl)-2-methylphenyl)amino)pyrimidin-4-yl)amino)-6-fluorobenzamide]	100 to 500 nM	500 to 1000 nM								
O=C1CCN(c2cnc(CCl)cn2)C(=O)N1 [GT-07635, 1-(5-(Chloromethyl)pyrazin-2-yl)dihydropyrimidine-2,4(1H,3H)-dione]			A (A is defined as 0% ≤ substrate protein remaining % ≤ 80%)	A (A is defined as 0% ≤ substrate protein remaining % ≤ 80%)	A (A is defined as 0% ≤ substrate protein remaining % ≤ 80%)	B (B is defined as substrate protein remaining % > 80%)	A (A is defined as 0% ≤ substrate protein remaining % ≤ 80%)	A (A is defined as 0% ≤ substrate protein remaining % ≤ 80%)	1000 to 5000 nM	
Cc1ccsc1C(=O)n1nc(Nc2ccc(S(=O)(=O)N3CCN(Cc4ccc(N5CCC(=O)NC5=O)cc4)CC3)cc2)nc1N [GT-06856, 1-(4-((4-((4-((5-amino-1-(3-methylthiophene-2-carbonyl)-1H-1,2,4-triazol-3-yl)amino)phenyl)sulfonyl)piperazin-1-yl)methyl)phenyl)dihydropyrimidine-2,4(1H,3H)-dione]	100 to 500 nM	500 to 1000 nM								IC50 (CCRF-CEM; Homo sapiens, CCRF-CEM): 500 to 1000 nM
